TGI and GI50 data for 25 compounds are collected here from PubChem BioAssay (NCI).

What all share (assay): growth of human tumour cells (NCI), 48 h
Assay [1] has as its system DMS 114 small cell lung.
The test system of assay [2] is HOP-18 NSCLC.
For assay [3], the system named is KM20L2 colon.
Assay [4] relates to DLD-1 colon.
The test system of assay [5] is MDA-N.
The subject of assay [6] is NCI/ADR-RES ovarian.
In assay [7] the test system is DU-145 prostate.
The test system of assay [8] is T-47D breast.
The subject of assay [9] is MDA-MB-435.

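Growth conditions: 96-well plates. Treatment: test compound, 48 hours, 5 concentrations. Analysis: linear interpolation between bracketing concentrations; unreached endpoints set to highest concentration. Abbreviation: GI50, concentration required for 50% inhibition of growth. TGI: concentration producing complete growth inhibition.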

Consider `O=S1CSCS1` (stereo not given), for which the TGI in assay [1], in assay [2], in assay [3] and in [4] was more than 100 µM in each case.
Regarding `CC(C)(C)N/N=C(\Cc1occc(=O)c1O)C(=O)Nc1ccc([N+](=O)[O-])cc1[N+](=O)[O-]`, the TGI in [1], in assay [2] and in assay [3] was more than 100 µM in each case.
For the compound `O=c1oc2cc(N=Cc3ccccc3Cl)ccc2c2ccccc12`, the TGI in [5], in [6], in assay [7], in [8] and in assay [9] was more than 100 µM each time.
In the case of `COc1ccc(C(C#N)NC23CC4CC(CC(C4)C2)C3)cc1OC` (stereo not given), the TGI in assay [5], in assay [6], in assay [7], in [8] and in assay [9] was more than 100 µM throughout.
For `Cc1cc(=O)n(-c2ccccc2)c(=O)o1`, the TGI in [1], in assay [2], in assay [3] and in [4] was more than 100 µM throughout.
Take `Cc1cc(=O)oc2c(CN3CCCCC3)c(O)ccc12`: the TGI in [5], in [6], in [7], in assay [8] and in [9] was more than 100 µM each time.
For `CC(=O)[CH-]C(=O)c1ccccc1.CC(=O)[CH-]C(=O)c1ccccc1.COc1cccc([O-])c1[O-].[Ti+4]`, the GI50 was 25.9 µM in [2], 52.2 µM in [3] and 69.2 µM in [4]. In addition, the results for the TGI in assay [2], in assay [3] and in [4] were 63.5 µM, more than 100 µM and more than 100 µM, respectively.
`COc1cc2ccccc2c2cc([N+](=O)[O-])oc12`: the TGI was 0.849 µM in [5]; 32.1 µM in [6]; 7.49 µM in [7]; more than 45.6 µM in assay [8]; 0.733 µM in [9].
On to `CC(C)N(C(=O)C12C3C4C5C3C1(C(=O)N(C(C)C)C(C)C)C5(C#N)C42)C(C)C` (stereo not given), for which the TGI in [1] is more than 100 µM; in assay [2], more than 100 µM; in assay [3], more than 100 µM; in assay [4] it was 66.5 µM.
With `N#CNC(N)=NCCO`, the TGI in assay [1], in [2], in [3] and in assay [4] was more than 100 µM throughout.
For `CC(=O)OCCOCNC(=S)N/N=C/c1ccc2ccccc2n1`, the TGI in assay [1] was 71.3 µM; in [2], more than 100 µM; in [3], 79.8 µM; in assay [4] it was more than 100 µM.
`CNC(=S)N/N=C1\CC(c2ccccc2)Oc2ccccc21` (stereo not given) displayed a TGI in assay [4] of more than 100 µM.
Take `Clc1ccccc1C(n1ncc2ccccc21)n1ncc2ccccc21`: the TGI in assay [1] and in assay [4] was more than 100 µM each time.
For the compound `CC(=O)Nc1ccc(-c2c3nc(c(-c4cc5ccccc5[n+](C)c4)c4ccc([nH]4)c(-c4ccc(NC(C)=O)cc4)c4nc(c(-c5cc6ccccc6[n+](C)c5)c5ccc2[nH]5)C=C4)C=C3)cc1`, the GI50 in assay [5] was 11.2 µM; in assay [6], 13.3 µM; in assay [7] it was 5.93 µM; in assay [8] it was 8.6 µM; in assay [9], 7.19 µM. Besides, the TGI in assay [5] came out at 36.7 µM; in [6], 45.7 µM; in assay [7], 17.1 µM; in [8] it was 29.6 µM; in assay [9], 30.6 µM.
Turning to `[C-]#[O+].[Cl][Sn]([Cl])[Cl].[Cl][Sn]([Cl])[Cl].[Pt].c1ccc([PH+](c2ccccc2)c2ccccc2)cc1.c1ccc([PH+](c2ccccc2)c2ccccc2)cc1`, the GI50 in assay [1] was 21.8 µM; in [2] it was 25.3 µM; in assay [3] it was more than 100 µM; in [4] it was 45.5 µM. In addition, the TGI in assay [1] is 51.2 µM; in [2], 90 µM; in [3] it was more than 100 µM; in assay [4], more than 100 µM.
As for `O=C1c2ccccc2NC(c2cc(Cl)cc(Cl)c2O)N1CCc1ccccn1` (stereo not given), the TGI in assay [5] was more than 100 µM; in assay [6], more than 100 µM; in [7] it was more than 100 µM; in [8], 69.8 µM; in [9], more than 100 µM.
As to `CC1(C)CCC[C@@]2(C)C1C[C@H](O)[C@@]1(C)O[C@@](C)([C@H](O)CO)CCC21` (stereo not given in full), the results for the TGI in [1], in assay [2] and in assay [3] were 90.2 µM, more than 100 µM and more than 100 µM, respectively.
Take `Cc1ccc(C2CC(c3ccc([N+](=O)[O-])cc3)=Nc3ccccc3S2)cc1` (stereo not given): the TGI in assay [1] is 59 µM; in assay [2] it was more than 100 µM; in assay [3] it was 96.7 µM; in assay [4] it was 85.5 µM.
As for `O=C(c1ccccc1)C(c1ccccc1)C1(O)C(=O)Nc2ccccc21` (stereo not given), the TGI in assay [1], in [3] and in assay [4] was more than 100 µM each time.
With `O=C(O)C1CCc2nnc(-c3ccccc3)n21` (stereo not given), the TGI in assay [1], in assay [2], in assay [3] and in [4] was more than 100 µM each time.
Turning to `COc1c(C2=NC(C(C)C)CO2)ccc2ccccc12` (stereo not given), the TGI in assay [3] and in assay [4] was more than 100 µM in each case.
As for `COc1ccc(CN2C(=O)C(Cc3cc(OC)c(OC)c(C)c3OC)NC(=O)/C2=C/c2cc(OC)c(OC)c(C)c2OC)cc1` (stereo not given), the TGI in [1] was 97.3 µM; in assay [2], 65.2 µM; in assay [3], 59.2 µM; in assay [4], more than 100 µM.
For the compound `Cc1nc2ccccc2c(=O)n1/N=C(\N=Nc1cc(Cl)ccc1Cl)c1cccc(-c2ccco2)c1`, the TGI in [1], in [2] and in assay [4] was more than 100 µM throughout.
On to `Cc1c(C(=O)CC(=O)C(=O)Nc2c(C(C)C)cccc2C(C)C)[n+](=O)c2ccccc2n1[O-]`, for which the figures for the TGI in [1] and in assay [3] were 6.41 µM and 15.9 µM, respectively.
As to `CC(C)(C)[Si](C)(C)OCC1CCC(n2cnc3c(=O)[nH]cnc32)O1` (stereo not given), the TGI in assay [5], in assay [6], in assay [7], in assay [8] and in [9] was more than 100 µM throughout.
